Experimental data from ChEMBL document CHEMBL6074718, “Discovery and biological evaluation of potent 2-trifluoromethyl acrylamide warhead-containing inhibitors of protein disulfide isomerase” (Eur J Med Chem, 2025).
Calls of active or inactive are those of the source. The rule behind the calls is not given here.

Columns and labels:
[1] = target: T1, Protein disulfide-isomerase (Homo sapiens, UniProt P07237); assay: Inhibition of recombinant PDI (unknown origin) preincubated for 1 hrs followed by bovine insulin addition and measured after 80 mins by absorbance based reductase assay
Target sequence in this assay (P07237 whole entry): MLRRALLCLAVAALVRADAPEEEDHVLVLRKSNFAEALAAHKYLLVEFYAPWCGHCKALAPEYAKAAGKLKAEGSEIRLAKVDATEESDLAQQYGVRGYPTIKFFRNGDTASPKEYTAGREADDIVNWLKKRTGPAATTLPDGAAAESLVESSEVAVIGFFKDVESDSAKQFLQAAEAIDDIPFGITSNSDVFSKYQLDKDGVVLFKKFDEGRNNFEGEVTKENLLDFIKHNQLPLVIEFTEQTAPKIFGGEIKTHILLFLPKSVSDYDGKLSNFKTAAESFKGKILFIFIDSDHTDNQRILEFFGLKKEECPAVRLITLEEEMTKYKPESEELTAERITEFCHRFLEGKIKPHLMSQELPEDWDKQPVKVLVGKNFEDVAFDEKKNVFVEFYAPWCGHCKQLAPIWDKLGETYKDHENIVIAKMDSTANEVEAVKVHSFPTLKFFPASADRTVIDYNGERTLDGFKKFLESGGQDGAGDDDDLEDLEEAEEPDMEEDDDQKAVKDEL

[2] = Antiplatelet aggregation activity in human Platelet assessed as inhibition of thrombin- induced aggregation preincubated for 3 mins followed by thrombin addition by turbidimetric aggregometry
[3] = Antiplatelet aggregation activity in human Platelet assessed as inhibition of collagen- induced aggregation preincubated for 3 mins followed by collagen addition by turbidimetric aggregometry
[4] = target: T2, Protein disulfide-isomerase A3 (Homo sapiens, UniProt P30101); assay: Inhibition of recombinant PDIA3 (unknown origin) preincubated for 1 hrs followed by bovine insulin addition and measured after 80 mins by absorbance based reductase assay
T2 sequence (P30101 whole entry): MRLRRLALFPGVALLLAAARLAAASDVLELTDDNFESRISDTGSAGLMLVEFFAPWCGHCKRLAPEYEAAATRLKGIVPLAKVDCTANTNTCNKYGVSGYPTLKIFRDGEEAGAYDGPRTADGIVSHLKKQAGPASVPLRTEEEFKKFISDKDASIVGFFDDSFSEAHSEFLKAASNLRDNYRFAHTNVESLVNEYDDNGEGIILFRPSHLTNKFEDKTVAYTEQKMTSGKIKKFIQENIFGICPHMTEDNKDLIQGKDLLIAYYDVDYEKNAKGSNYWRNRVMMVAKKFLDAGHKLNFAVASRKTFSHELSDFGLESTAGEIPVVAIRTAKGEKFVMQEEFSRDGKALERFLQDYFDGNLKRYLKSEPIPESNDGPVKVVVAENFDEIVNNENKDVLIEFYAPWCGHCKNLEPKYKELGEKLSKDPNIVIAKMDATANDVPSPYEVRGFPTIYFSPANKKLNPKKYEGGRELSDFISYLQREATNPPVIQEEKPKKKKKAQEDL

HepG2 = assay: Antiproliferative activity against human HepG2 cells assessed as reduction in cell viability at 5 to 40 uM incubated for 24 hrs by MTT assay; type: functional, cell-based; conditions: dose 5-40 µM
MDA-MB-231 = assay: Antiproliferative activity against human MDA-MB-231 cells assessed as reduction in cell viability at 5 to 40 uM incubated for 24 hrs by MTT assay; type: functional, cell-based; conditions: dose 5-40 µM
Blood [5] = assay: Antithrombotic activity in citrated-human whole blood assessed as reduction in coverage area of thrombi on collagen-coated chamber at 5 uM incubated for 10 mins in presence of DiOC6(3) by fluorescence microscopic analysis relative to control; type: functional; parameters: scale not given: the % may be the effect or the level left
[6] = target: T1, Protein disulfide-isomerase; assay: Inhibition of recombinant PDI (unknown origin) at 0.2 uM preincubated for 1 hrs and measured after 10 fold dilution by absorbance based analysis
Target sequence in this assay (P07237 18-508 limits assumed): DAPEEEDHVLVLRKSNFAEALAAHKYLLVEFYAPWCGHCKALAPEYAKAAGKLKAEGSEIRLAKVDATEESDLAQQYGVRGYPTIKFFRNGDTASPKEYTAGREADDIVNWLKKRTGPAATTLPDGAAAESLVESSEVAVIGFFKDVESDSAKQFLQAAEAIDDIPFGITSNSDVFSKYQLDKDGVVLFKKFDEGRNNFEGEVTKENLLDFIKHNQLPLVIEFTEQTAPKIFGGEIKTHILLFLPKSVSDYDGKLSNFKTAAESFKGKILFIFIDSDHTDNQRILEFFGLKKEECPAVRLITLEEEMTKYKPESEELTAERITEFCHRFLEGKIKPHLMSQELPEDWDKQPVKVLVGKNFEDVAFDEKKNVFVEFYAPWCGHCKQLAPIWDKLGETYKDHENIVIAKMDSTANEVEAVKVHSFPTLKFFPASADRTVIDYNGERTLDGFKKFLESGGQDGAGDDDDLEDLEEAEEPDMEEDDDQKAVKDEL

HUVEC = assay: Cytotoxicity against HUVEC cells assessed as reduction in cell viability at 5 to 40 uM incubated for 24 hrs by MTT assay; type: toxicity, cell-based; conditions: human, dose 5-40 µM
[7] = target: T3, Protein disulfide-isomerase A6 (Homo sapiens, UniProt Q15084); assay: Inhibition of recombinant PDIA6 (unknown origin) preincubated for 1 hrs followed by bovine insulin addition and measured after 80 mins by absorbance based reductase assay
T3 sequence (Q15084 whole entry): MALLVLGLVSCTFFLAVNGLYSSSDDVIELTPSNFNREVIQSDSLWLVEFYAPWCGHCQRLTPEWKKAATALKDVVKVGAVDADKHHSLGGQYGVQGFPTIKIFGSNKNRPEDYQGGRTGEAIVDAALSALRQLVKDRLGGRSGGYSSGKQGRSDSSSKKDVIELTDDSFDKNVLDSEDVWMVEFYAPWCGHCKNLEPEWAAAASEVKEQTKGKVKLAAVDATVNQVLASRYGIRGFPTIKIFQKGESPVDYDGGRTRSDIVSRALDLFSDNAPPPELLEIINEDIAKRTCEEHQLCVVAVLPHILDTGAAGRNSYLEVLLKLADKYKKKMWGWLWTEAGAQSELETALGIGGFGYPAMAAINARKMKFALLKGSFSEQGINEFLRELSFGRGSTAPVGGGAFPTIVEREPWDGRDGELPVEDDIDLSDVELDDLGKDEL

[8] = Antiplatelet aggregation activity in human Platelet assessed as reduction in U46619-induced secretion of p-selectin at 5 uM preincubated for 3 mins followed by U46619 addition and measured after 5 mins by flow cytometric analysis relative to control; type: functional; parameters: scale not given: the % may be the effect or the level left; conditions: time 8 min
A549 = assay: Antiproliferative activity against human A549 cells assessed as reduction in cell viability at 5 to 40 uM incubated for 24 hrs by MTT assay; type: functional, cell-based; conditions: dose 5-40 µM
[9] = target: T1, Protein disulfide-isomerase; assay: Inhibition of PDI in human Platelet assessed as reduction in […] activation by measuring decrease in PAC-1 binding at 5 uM preincubated for 3 mins followed by U46619 addition and measured after 5 mins by flow cytometric analysis; type: cell-based; conditions: time 8.0 min
Target sequence in this assay (P07237 18-508 limits assumed): as the sequence (P07237 18-508 limits assumed) above

[10] = Antiplatelet aggregation activity in human Platelet assessed as inhibition of U46619- induced aggregation preincubated for 3 mins followed by U46619 addition by turbidimetric aggregometry
Blood [11] = assay: Antithrombotic activity in citrated-human whole blood assessed as reduction in coverage area of thrombi on collagen-coated chamber at 100 uM incubated for 10 mins in presence of DiOC6(3) by fluorescence microscopic analysis relative to control; type: functional; parameters: scale not given: the % may be the effect or the level left
Blood [12] = assay: Antithrombotic activity in citrated-human whole blood assessed as reduction in coverage area of thrombi on collagen-coated chamber at 200 uM incubated for 10 mins in presence of DiOC6(3) by fluorescence microscopic analysis relative to control; type: functional; parameters: scale not given: the % may be the effect or the level left
Platelet [13] = assay: Antiplatelet aggregation activity in human Platelet assessed as inhibition of thrombin- induced aggregation at 50 to 200 uM preincubated for 3 mins followed by thrombin addition by turbidimetric aggregometry; type: functional, cell-based; conditions: dose 50-200 µM
Platelet [14] = assay: Antiplatelet aggregation activity in human Platelet assessed as inhibition of U46619- induced aggregation at 50 to 200 uM preincubated for 3 mins followed by U46619 addition by turbidimetric aggregometry; type: functional, cell-based; conditions: dose 50-200 µM
[15] = target: T1, Protein disulfide-isomerase; assay: Irreversible inhibition of recombinant PDI (unknown origin) at 4 uM preincubated for 1 hrs and measured after 10 fold dilution by absorbance based analysis
Target sequence in this assay (P07237 18-508 limits assumed): as the sequence (P07237 18-508 limits assumed) above

Row | Structure (SMILES) | IC50 [1] | further results
1 | C=C(C(=O)Nc1ccc(-c2ccccc2)cc1)C(F)(F)F | 1630 nM | 
2 | C=C(C(=O)Nc1ccc(C(=O)c2ccccc2)cc1)C(F)(F)F | 480 nM | IC50 [2]: 25500 nM; IC50 [3]: 13000 nM; IC50 [4]: 1520 nM; Activity (HepG2): inactive; Activity (MDA-MB-231): inactive; Activity (Blood [5]): 36%; inhibition [6]: Not active; Compound Exhibited Reversible Binding Mode With Pdi; Activity (HUVEC): Non-toxic; IC50 [7]: 7100 nM; Activity [8]: 52%; Activity (A549): inactive; inhibition [9]: Active; IC50 [10]: 3500 nM
3 | C=C(C(=O)Nc1ccc(OC)c(OC)c1)C(F)(F)F | 3000 nM | 
4 | C#CC(=O)Nc1cc(OC)c(OC)cc1C(=O)OC | 1600 nM | 
5 | C=C(C(=O)Nc1cc(OC)c(OC)cc1C(=O)OC)C(F)(F)F | 2200 nM | 
6 | C=C(C(=O)Nc1ccc(OCc2ccccc2)c(OC)c1)C(F)(F)F | 810 nM | 
7 | CC(=O)Oc1ccccc1C(=O)O [ASPIRIN] |  | IC50 [3]: 74500 nM; Activity (Blood [11]): 21%; Activity (Blood [12]): 46%; Activity (Platelet [13]): inactive; Activity (Platelet [14]): inactive
8 | C=C(C(=O)Nc1ccc(OCCC)c(OC)c1)C(F)(F)F | 1230 nM | 
9 | COC(=O)/C=C/C(=O)Nc1cc(OC)c(OC)cc1C(=O)OC | > 40000 nM | 
10 | COC(=O)c1cc(OC)c(OC)cc1NC(=O)C1CO1 (stereo not given) | > 40000 nM | 
11 | C=C(C(=O)Nc1ccc(N(CC)CC)cc1)C(F)(F)F | 840 nM | 
12 | C=C(C(=O)Nc1ccc(OCC)c(OC)c1)C(F)(F)F | 1620 nM | 
13 | C=C(C(=O)Nc1ccc(C(C)(C)C)cc1)C(F)(F)F | 870 nM | 
14 | C=C(C(=O)Nc1ccc2c(c1)OCO2)C(F)(F)F | 2910 nM | 
15 | C=C(C(=O)Nc1ccc(Cc2ccccc2)cc1)C(F)(F)F | 560 nM | 
16 | C=C(C(=O)Nc1ccc(C(F)(F)F)cc1)C(F)(F)F | 680 nM | 
17 | C#CC(=O)N(c1ccc(OC)c(OC)c1)C(C(=O)NCC(=O)OCC)c1cccs1 (stereo not given) | 12400 nM | IC50 [4]: 28100 nM; inhibition [15]: Active; IC50 [7]: > 40000 nM
18 | C=C(C(=O)Nc1ccc(CN2CCOCC2)cc1)C(F)(F)F | 1210 nM | 
19 | C=CS(=O)(=O)Oc1cc(OC)c(OC)cc1C(=O)OC | 1100 nM | 
20 | C=C(F)C(=O)Nc1cc(OC)c(OC)cc1C(=O)OC | > 40000 nM | 
21 | COC(=O)c1cc(OC)c(OC)cc1NC(=O)C12CC1C2 (stereo not given) | > 40000 nM | 
22 | COC(=O)c1cc(OC)c(OC)cc1NC(=O)CCl | > 40000 nM | 
23 | C=CS(=O)(=O)Nc1cc(OC)c(OC)cc1C(=O)OC | 19100 nM | 
24 | C=C(C(=O)Nc1cc(OC)c(OC)c(OC)c1)C(F)(F)F | 580 nM | 
25 | C=CC(=O)Nc1cc(OC)c(OC)cc1C(=O)OC | > 40000 nM | 
